The values that follow come from a melting point compilation (Tetko et al.; mined from patent text by program, amines drawn as free bases though some values may be those of a salt).

With `CN1C(=O)C(Cc2c[nH]c3c(Cl)cc(S(C)(=O)=O)cc23)NC1=S` (centres undefined), the melting point – broadly, the temperature, or range, at which the solid turns liquid – was 242 to 245 °C.

In the case of `CSCc1cnc(Cl)nc1`, the melting point lay in the range of 56 to 57 °C.

Regarding `CCSc1nsc(NC(=O)NC)c1C#N`, the melting point came to 246 °C.

In the case of `c1nc(NCCN2CCOCC2)c2sc3nc(N4CCCC4)c4c(c3c2n1)CCOC4`, the melting point fell in the range of 189 to 191 °C.

Take `CC(C)(O)c1ccc(-c2ccc(N3C[C@H](Cn4ccnn4)OC3=O)cc2F)cn1`: the melting point came to 180 °C.

Take `O=C(O)CCCCCCCn1nc(-c2ccccc2)c(-c2ccccc2)n1`: the melting point is 86 to 88 °C.

Turning to `CSc1cc2c(cc1F)C(=O)c1cc3ccccc3cc1C2=O`, the melting point lay in the range of 230 to 235 °C.

Take `CCCc1c(OCc2ccc(C(=O)OC)cc2)ccc(C(C)=O)c1O`: the melting point is 99.5 to 100 °C.

For the compound `CCCn1c(=O)c2[nH]c(C3CCOCC3)nc2n(CCC)c1=O`, the melting point fell in the range of 171 to 172 °C.

`CCc1cccc2c1CCNC2=O` had a melting point of 123 to 126 °C.

`Nc1nc(Nc2ccccc2)c2[nH]cnc2n1`: the melting point was found to be 126 °C.

For `CC(C)CCCC(C)CCCC(C)CCOc1ccc(C(=O)O)o1` (centres undefined), the melting point is 70 to 73 °C.

`CCCCNc1nc(N2CC3CCC(CC3)C2)nc(N2CC3CCC(CC3)C2)n1` came in with a melting point of 101 to 103 °C.

Regarding `CC1(C)Oc2ccc([N+](=O)[O-])cc2C(n2ccccc2=O)=C1NC(=O)C(F)(F)F`, the melting point was determined as 189 °C.

As for `Cc1cccc([N+](=O)[O-])c1C#N`, the melting point lay in the range of 101 to 103 °C.

As for `CCOC(=O)C(=NOC)c1noc(N)n1`, the melting point was in the range of 143 to 146 °C.

`O=C1c2[nH]c3cc(O)ccc3c2CC1CC1CCN(Cc2ccccc2)CC1` (centres undefined): the melting point fell in the range of 250 to 252 °C.

As to `CC1(C)Cc2c(c(N3CCCC3)nc3sc4c(NCc5cccnc5)ncnc4c23)CO1`, the melting point lay in the range of 289 to 290 °C.

With `COCN1C(C)=C(C(=O)O)C(c2ccccc2C(F)(F)F)C(C(=O)OCOC(=O)C(C)(C)C)=C1C` (single isomer, unassigned; (+)), the melting point lay within 69 to 70 °C.

Regarding `Cn1c2c(c3ccc(F)cc31)C(=O)CCC2`, the melting point was 174 to 175 °C.

Take `COc1cccc(NC(=O)c2ccccc2C(=O)O)c1`: the melting point was 168 to 169 °C.

Take `Cc1ccc(-c2ccc3c(c2)C=C(C=O)CCO3)cc1`: the melting point lay in the range of 132 to 133 °C.

`Cc1ncoc1C(C)(O)c1ccsc1` (centres undefined) returned a melting point of 87 to 89 °C.

Consider `CCC(C(C)=CC(CNC(=O)c1nc[nH]c1C)=NO)[N+](=O)[O-]` (centres undefined), for which the melting point lay within 133 to 136 °C.

The compound `O=C1CCC(c2ccccc2)(N2CCOCC2)CC1` showed a melting point of 116 to 119 °C.

Compound `Nc1ccc(CCC(=O)Nc2ccc(Cl)cc2Cl)cc1[N+](=O)[O-]` came in with a melting point of 164 to 165 °C.

The compound `Cc1ccc(C)c2c1Cc1c(O)cccc1C2=O` showed a melting point of 172 to 178 °C.

In the case of `Fc1cccc(F)c1-c1nc(/C=C/c2ccc(-c3ccc(OC(F)(F)F)cc3)cc2)no1`, the melting point fell in the range of 122 to 123 °C.

Regarding `N#CCc1cccc(OCc2csc(-c3ccccc3)n2)c1`, the melting point is 108 to 110 °C.

In turn, `O=C(Nc1ccc(Cl)c(C(F)(F)F)c1)Nc1ccc(OCc2ccccc2)cc1O` yielded a melting point of 182 to 184 °C.

In the case of `O=C(Nc1ccc2ccc(-c3ccccc3)nc2n1)c1cccc(Cl)c1`, the melting point stood at 175 °C.

`COC(=O)c1cc(S)cc(C(=O)OC)c1[N+](=O)[O-]` showed a melting point of 117 to 119 °C.

Compound `COC(=O)c1cc(SC(=O)N(C)C)cc(SC(=O)N(C)C)c1` had a melting point of 128 to 130 °C.

As for `CCCCN1CCC(CNC(=O)c2ccc(N)n3c(Cl)c(CC)nc23)CC1`, the melting point was 86 to 90 °C.

As for `O=[N+]([O-])c1cc(C(F)(F)F)cc(C(F)(F)F)c1S(=O)(=O)Oc1ccccc1`, the melting point is 83 to 84 °C.

For the compound `CC(C)CN(C)S(=O)(=O)c1cccc(-c2cc(-c3nc(-c4ccc(C(F)(F)F)cc4)cc(C(F)(F)F)n3)ccn2)c1`, the melting point worked out at 144 °C.

Consider `O=C(Cc1ccc(Oc2ccc(C(F)(F)F)cn2)cc1)Nc1ccncc1`, for which the melting point lay within 167 to 170 °C.

With `BrC1COCOCC1Br` (centres undefined), the melting point came to 37 °C.

As for `COC(=O)C(C)Oc1ccc(Oc2cnc3cc(Cl)c(Cl)cc3n2)cc1` (centres undefined), the melting point is 100 to 105 °C.

For the compound `COCOCc1cc(-c2ccc(C(=O)O)cc2)cc(-c2ccc3c(c2)C(C)(C)CCC3(C)C)c1`, the melting point turned out to be 88 °C.

`COc1ccc(OCc2ccccc2)c2c1CN(Nc1ccncc1)CC2` registered a melting point of 151 to 152 °C.

`Cc1nc(N2CCCC2)sc1C(=O)c1ccc(Cl)c([N+](=O)[O-])c1` gave a melting point of 168 to 171 °C.

`O=c1[nH]c2cc(Cl)cc(Cl)c2c(=O)n1Cc1ccccc1` gave a melting point of 260 to 265 °C.

On to `CCN1CCN(c2ccc(Nc3cc(-c4cccc(-n5ncc6cc(C(C)(C)C)cc(F)c6c5=O)c4CO)nn(C)c3=O)nc2)CC1`, for which the melting point was in the range of 245 to 247 °C.

For the compound `CC(C)(CCOc1ccc(Cl)cc1Cl)C(=O)Cn1cncn1`, the melting point came out at 62 °C.

In turn, `CCc1nc2ccccc2n1C1CCN(CCCNc2ccc(F)cc2)CC1` had a melting point of 121 to 124 °C.

Turning to `CC(C)Oc1ccc(CCCOc2cc(CCC(=O)O)n(C)n2)c(OCc2ccc(C(F)(F)F)cc2)c1`, the melting point was 88 to 89 °C.

In the case of `CN1CCC(=C2c3ccccc3CC(O)c3ccccc32)CC1` (centres undefined), the melting point lay in the range of 205 to 206 °C.

`NC(=O)C(CCC(=O)O)N1C(=O)c2cccc(NCc3ccco3)c2C1=O` (centres undefined) had a melting point of 120 to 122 °C.

As to `CCC1=NC=C(c2ccc3c(c2)NC(=O)CO3)C(c2ccccc2)S1` (centres undefined), the melting point was in the range of 130 to 134 °C.

In the case of `CCN1CC(=O)N(c2ccccc2SC)C1=S`, the melting point was 128 to 131 °C.

`CN1C(=O)c2cccc(S(=O)(=O)NC(C)(C)C)c2C1=O` came in with a melting point of 160 to 163 °C.

For the compound `O=C(O)COc1cc2c(c(Cl)c1Cl)C(=O)C(c1ccccc1)(c1ccccc1)C2`, the melting point was 251 to 252 °C.

For the compound `CCC(C)S(=O)(=O)NC(=O)Nc1ccc(Cl)cc1` (centres undefined), the melting point fell in the range of 172 to 174 °C.

For `COC(OC)c1cc(O)cc(Cl)c1`, the melting point came out at 153 °C.

In the case of `CCCOc1ccccc1-c1nc(C=O)c[nH]1`, the melting point is 104 to 105 °C.

Regarding `O=C1Nc2ccc(F)cc2C1CCCCN1CCN(c2ccc(F)cc2)CC1` (centres undefined), the melting point was 135 to 137 °C.

Compound `Cc1cc(C(=O)O)ccc1Sc1ccc2c(c1)C(C)(C)CCC2(C)C` gave a melting point of 195 to 196 °C.

In turn, `NS(=O)(=O)c1ccc(NC(=O)CNc2ccccc2)c(Br)c1` showed a melting point of 179 to 181 °C.

`N#CCCNC(=O)c1cccc(-c2cccc3c2CN(Cc2cccc(C(F)(F)F)c2)C3=O)c1` registered a melting point of 191 to 192 °C.

For the compound `Nc1ccc(Oc2c(Cl)cc(C(F)(F)F)c(Cl)c2Cl)cc1Cl`, the melting point came out at 128 °C.

For the compound `Cn1cc(-c2cc(-c3cccnc3)ccn2)n(-c2ccc(C(C)(C)C#N)cc2)c1=O`, the melting point was 180 °C.

The compound `N=C(N)Nc1nc2ccc([N+](=O)[O-])cc2[nH]1` returned a melting point of 305 to 307 °C.

Turning to `Cc1csc2ccc3[nH]c4c(c3c12)CN(CCCN(C)C)CC4`, the melting point is 184 °C.
